In ChEMBL document CHEMBL4152289, “Novel 8-nitroquinolin-2(1H)-ones as NTR-bioactivated antikinetoplastid molecules: Synthesis, electrochemical and SAR study” (Eur J Med Chem, 2018):

Columns and labels:
[1] = Electrochemical behavior of the compound assessed as redox potential corrected toward normal hydrogen electrode at 10^-3 mol/L by cyclic voltammetry; conditions: 1000 µM
[2] = test system: Trypanosoma brucei brucei; test: Antitrypanosomal activity against trypomastigote stage of Trypanosoma brucei brucei AnTat 1.9 assessed as decrease in parasite viability after 69 hrs by Alamar Blue assay; format: functional, organism-based; conditions: AnTat 1.9, 69 h
[3] = test system: Leishmania infantum; test: microbe, parasite or virus in culture; format: functional, organism-based; conditions: MHOM/MA/67/ITMAP-263, 48 h
[4] = test system: HepG2; test: Cytotoxicity against human HepG2 cells assessed as decrease in cell viability after 72 hrs by MTT assay; conditions: hepg2, 72 h

Structure (SMILES) | Activity [1] [V] | IC50 [2] [µM] | IC50 [3] [µM] | CC50 [4] [µM]
O=[N+]([O-])c1cccc2cccnc12 | -0.84 | 17.9 | > 100 | > 100
Oc1ccc2ccccc2n1 | -1.86 | > 50 | > 100 | > 100
O=[N+]([O-])c1cccc2nc(O)ccc12 | -0.67 | > 50 | > 100 | > 100
O=[N+]([O-])c1ccc2nc(O)ccc2c1 | -0.82 | 2.3 | > 100 | > 100
Cn1c(=O)ccc2ccccc21 |  | > 50 | > 100 | > 100
O=c1cc(Br)c2cccc([N+](=O)[O-])c2[nH]1 | -0.51 | 5.5 | 20.3 | 60
CC(=O)Nc1ccccc1[N+](=O)[O-] | -0.68 | > 50 | > 100 | > 100
Cc1ccc2ccc(=O)[nH]c2c1[N+](=O)[O-] | -0.71 | > 50 | > 100 | > 100
COc1nc2c([N+](=O)[O-])cccc2cc1Br | -0.86 | 0.4 | > 6.2 | > 6.2
CC(C)(C)OC(=O)NCCOCCOCCNCc1cc(=O)[nH]c2c([N+](=O)[O-])cccc12 |  | 2.5 | > 100 | > 100
Nc1ccc2cccnc2c1[N+](=O)[O-] | -1.1 | > 50 | > 100 | > 100
COc1ccc2ccc(=O)[nH]c2c1[N+](=O)[O-] | -0.75 | > 50 | > 100 | > 100
Cc1cc(=O)[nH]c2c([N+](=O)[O-])cccc12 | -0.53 | 20.9 | 10.2 | 110
O=c1cnc2cccc([N+](=O)[O-])c2[nH]1 | -0.46 | 7.3 | 11 | 125
COc1ccc([N+](=O)[O-])c2[nH]c(=O)ccc12 | -0.65 | > 50 | > 100 | > 100
